From publication PMC5766581, “NF-κB inducing kinase is a therapeutic target for systemic lupus erythematosus” (Nature Communications, 2018)

Key:
[1] = tested on: p52 processing in human B cells; test: p52 processing western blot in B cells; format: cell-based
Experimental: (§1) p52/p100 and β-actin were monitored by western blot as described previously. Briefly, p52 processing was detected after 6 or 18 h of stimulation. Mouse and human RPTEC cells were stimulated with recombinant mouse or human TWEAK (100 ng/mL, R&D Systems). Primary B cells were isolated by negative selection (Miltenyi) from either mouse spleen or human whole blood. Human primary B cells were stimulated with either rhCD40L (10 μg/mL) or rhBAFF (400 ng/mL) (R&D Systems). Mouse primary B cells were stimulated with either anti-CD40 (10 μg/mL, BD Biosciences) or rmBAFF (400 ng/mL). After 6 or 18 h, whole cell extracts were generated using RIPA buffer (with protease and phosphatase inhibition), and approximately 10 μg of total protein was monitored for p52/p100 and β-Actin by western blot. HeLa cells (ATCC) were stimulated for 8 h with anti-LTβR agonist antibody and cytoplasmic and nuclear extracts were generated using kits purchase from Thermo Scientific and approximately […] of each extract was monitored for p52/p100, phospho-RelA, RelA, or β-Actin, Histone H3, or Lamin B1 controls. Uncropped western blots, as required by journal policies, are provided in Supplementary Fig. 13 and 14.

[2] = tested on: p52 processing in murine B cells; test: p52 processing western blot in B cells; format: cell-based; settings: mouse B cells
Experimental: as §1

[3] = tested on: NZB/W F1 mice; test: rAdV-IFNα-accelerated NZB/W F1 lupus model, 4-week biomarker study; format: in vivo; settings: 180 mg/kg BID P.O.
Experimental: Age-matched (NZB x NZW) F1 mice were purchased from Jackson Laboratory. Fourteen to fifteen weeks old female NZB/W F1 mice were injected i.v. with 1.2 × 10^8 rAD5-CMV-IFNα (rAdV-IFNα) particles (Genentech) to accelerate disease[34],[69]. […] In efficacy studies, proteinuria and survival were tracked through day 84. A 4-week PD study was performed to measure cell subsets, serum Ig, chemokines, cytokines, and gene expression.
Kidneys were immersed in 10% neutral buffered formalin at ambient temperature for 24 h, then paraffin-embedded using routine methods. Four micron histologic sections were stained with Periodic acid–Schiff (PAS) for evaluation of glomerulonephritis and hematoxylin and eosin (H&E) for visual evaluation of interstitial inflammation by light microscopy. Scoring by the pathologist was performed in a blinded fashion. Glomerulonephritis severity scoring was on a 4-point semi-quantitative scale: “0” – normal or mild global lesions in <50% of glomeruli, “1”—global lesions in > 50% of glomeruli, <20% of which are severe (defined as >1 segment with <3 patent capillaries), “2”—global lesions in >50% of glomeruli, 20–80% of which are severe, and “3”— >80% of glomeruli with severe global lesions. Chronic pyelitis, cortical periarteritis, and tubulointerstitial nephritis severity was determined by blinded disease scoring. Severity scores for tubulointerstitial nephritis, periarteritis, and pyelitis were all on 4-point semiquantitative scales: “0”—no significant inflammation, “1”—sparse or focal inflammatory infiltrates, “2”—occasional moderately sized inflammatory infiltrates, and “3”—frequent large inflammatory infiltrates. Proteinuria measurements were done by dipstick (Multistix, Bayer Diagnostics). Protein concentration was assigned a proteinuria score with trace = […] = 1, 100 mg/dl = 2, >300 mg/dl = 4, and dead mice = 5.

[4] = In vivo studies in mice: PK, target coverage, tolerability; set-up: species or system mouse
[5] = tested on: 222 recombinant human kinases; test: SelectScreen kinase panel, overall selectivity; format: biochemical; settings: 1 μM
Experimental: The ability of NIK to catalyze the hydrolysis of adenosine-5′-triphosphate (ATP) was monitored using the Transcreener ADP (adenosine-5′-diphosphate) assay (Bell Brook Labs, Fitchburg, WI). Purified human NIK kinase domain (a.a. 340–694) (0.5 nM) or mouse NIK kinase domain (a.a. 329–675) (1 nM) derived from a baculovirus-infected insect cell expression system was incubated with test compounds for 0.5–2 h in 50 mM HEPES buffer (pH 7.2) containing 10 mM MgCl2, 2 mM dithiothreitol, 10 μM ATP, 0.01% Triton X-100, 0.1% gamma-globulins from bovine blood, 1% dimethylsulfoxide (DMSO), 7 μg/mL ADP antibody and 5 nM ADP-MR121 633 tracer. […] The tracer bound to the antibody was displaced by the ADP generated during the NIK reaction, which caused a decrease in fluorescence polarization that was measured by laser excitation at 633 nm with a Fluorescence Correlation Spectroscopy Plus reader (Evotec AG). Equilibrium dissociation constant (Ki) values for NIK inhibitors are calculated from plots of activity vs. inhibitor concentration using Morrison’s quadratic equation that accounts for the potential of tight binding, and by also applying the conversion factor that accounted for competitive inhibition and the concentration of substrate used in the assay relative to its Michaelis constant (Km). The Ki values with hPKD1 (PKCμ) were determined using the same assay conditions as for NIK. […]

[6] = molecular target: T1, CAMKK2 (Homo sapiens, UniProt Q96RR4); test: SelectScreen kinase panel; format: binding
T1 construct: purchased Invitrogen / ThermoFisher SelectScreen
Experimental: (§2) The ability of NIK to catalyze the hydrolysis of adenosine-5′-triphosphate (ATP) was monitored using the Transcreener ADP (adenosine-5′-diphosphate) assay (Bell Brook Labs, Fitchburg, WI). Purified human NIK kinase domain (a.a. 340–694) (0.5 nM) or mouse NIK kinase domain (a.a. 329–675) (1 nM) derived from a baculovirus-infected insect cell expression system was incubated with test compounds for 0.5–2 h in 50 mM HEPES buffer (pH 7.2) containing 10 mM MgCl2, 2 mM dithiothreitol, 10 μM ATP, 0.01% Triton X-100, 0.1% gamma-globulins from bovine blood, 1% dimethylsulfoxide (DMSO), 7 μg/mL ADP antibody and 5 nM ADP-MR121 633 tracer. Reactions were quenched by the addition of 20 mM EDTA and 0.01% Brij 35. The tracer bound to the antibody was displaced by the ADP generated during the NIK reaction, which caused a decrease in fluorescence polarization that was measured by laser excitation at 633 nm with a Fluorescence Correlation Spectroscopy Plus reader (Evotec AG). Equilibrium dissociation constant (Ki) values for NIK inhibitors are calculated from plots of activity vs. inhibitor concentration using Morrison’s quadratic equation that accounts for the potential of tight binding, and by also applying the conversion factor that accounted for competitive inhibition and the concentration of substrate used in the assay relative to its Michaelis constant (Km). The Ki values with hPKD1 (PKCμ) were determined using the same assay conditions as for NIK. Ki measurements for hKHS1 and hLRRK2, as well as broad kinase selectivity profiling for SMI1, were carried out by Invitrogen using their SelectScreen kinase assay panel (ThermoFisher Scientific, Madison, WI). The vendor offered two types of kinase activity assays, a peptide phosphorylation assay (Z′-LYTE) and an ADP quantitation assay (Adapta), as well as one type of kinase ATP site competitive binding assay (LanthaScreen). See vendor web site for technology and protocol details for each specific kinase assay.
(§3) The average % Inhibition of each kinase is reported (Supplementary Table 1).

[7] = molecular target: T2, EphA3 (Homo sapiens, UniProt P29320); test: SelectScreen kinase panel; format: binding
T2 construct: purchased Invitrogen / ThermoFisher SelectScreen
Experimental: as §2, §3

[8] = molecular target: T3, JNK3 (Homo sapiens, UniProt P53779); test: SelectScreen kinase panel; format: binding
T3 construct: purchased Invitrogen / ThermoFisher SelectScreen
Experimental: as §2, §3

[9] = molecular target: T4, MEK1 (Homo sapiens, UniProt Q02750); test: SelectScreen kinase panel; format: binding
T4 construct: purchased Invitrogen / ThermoFisher SelectScreen
Experimental: as §2, §3

[10] = molecular target: T5, ZAK (Homo sapiens, UniProt Q9NYL2); test: SelectScreen kinase panel; format: binding
T5 construct: purchased Invitrogen / ThermoFisher SelectScreen
Experimental: as §2, §3

[11] = molecular target: T6, Hyl (Homo sapiens, UniProt P42679); test: SelectScreen kinase panel; format: biochemical
T6 construct: purchased Invitrogen / ThermoFisher SelectScreen

[12] = molecular target: T7, CDK5/p25 (Homo sapiens, UniProt Q00535); test: SelectScreen kinase panel; format: biochemical
T7 construct: purchased Invitrogen / ThermoFisher SelectScreen
T7 sequence (Q00535 whole entry): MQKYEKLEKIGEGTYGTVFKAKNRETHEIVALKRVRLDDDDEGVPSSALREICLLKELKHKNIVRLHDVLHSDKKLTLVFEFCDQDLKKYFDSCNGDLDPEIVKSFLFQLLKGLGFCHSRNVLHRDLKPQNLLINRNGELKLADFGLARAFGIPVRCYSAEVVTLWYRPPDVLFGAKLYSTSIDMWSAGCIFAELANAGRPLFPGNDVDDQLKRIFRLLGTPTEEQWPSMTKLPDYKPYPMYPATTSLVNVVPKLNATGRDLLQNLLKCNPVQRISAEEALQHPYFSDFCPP
T7 sequence (Q15078 99-307 partner limits assumed): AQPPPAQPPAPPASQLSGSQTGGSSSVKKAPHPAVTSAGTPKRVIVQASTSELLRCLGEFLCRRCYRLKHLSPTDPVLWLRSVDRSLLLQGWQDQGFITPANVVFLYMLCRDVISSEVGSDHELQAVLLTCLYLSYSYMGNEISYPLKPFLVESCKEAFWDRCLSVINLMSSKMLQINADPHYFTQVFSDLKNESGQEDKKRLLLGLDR

T6 sequence (P42679 whole entry): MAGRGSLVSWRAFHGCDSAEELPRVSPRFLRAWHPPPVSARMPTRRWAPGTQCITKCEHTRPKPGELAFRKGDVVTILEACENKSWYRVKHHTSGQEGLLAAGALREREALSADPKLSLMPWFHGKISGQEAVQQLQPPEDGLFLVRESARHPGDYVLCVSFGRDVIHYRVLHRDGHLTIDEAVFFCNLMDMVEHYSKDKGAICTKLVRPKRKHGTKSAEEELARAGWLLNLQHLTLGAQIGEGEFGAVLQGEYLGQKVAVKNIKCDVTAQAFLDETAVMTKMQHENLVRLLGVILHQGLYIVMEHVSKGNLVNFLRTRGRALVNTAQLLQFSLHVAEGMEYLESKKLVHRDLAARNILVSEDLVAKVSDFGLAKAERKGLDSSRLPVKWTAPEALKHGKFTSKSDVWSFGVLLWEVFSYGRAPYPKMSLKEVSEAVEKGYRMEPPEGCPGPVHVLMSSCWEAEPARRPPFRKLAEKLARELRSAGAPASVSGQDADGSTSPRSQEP
T5 sequence (Q9NYL2 whole entry): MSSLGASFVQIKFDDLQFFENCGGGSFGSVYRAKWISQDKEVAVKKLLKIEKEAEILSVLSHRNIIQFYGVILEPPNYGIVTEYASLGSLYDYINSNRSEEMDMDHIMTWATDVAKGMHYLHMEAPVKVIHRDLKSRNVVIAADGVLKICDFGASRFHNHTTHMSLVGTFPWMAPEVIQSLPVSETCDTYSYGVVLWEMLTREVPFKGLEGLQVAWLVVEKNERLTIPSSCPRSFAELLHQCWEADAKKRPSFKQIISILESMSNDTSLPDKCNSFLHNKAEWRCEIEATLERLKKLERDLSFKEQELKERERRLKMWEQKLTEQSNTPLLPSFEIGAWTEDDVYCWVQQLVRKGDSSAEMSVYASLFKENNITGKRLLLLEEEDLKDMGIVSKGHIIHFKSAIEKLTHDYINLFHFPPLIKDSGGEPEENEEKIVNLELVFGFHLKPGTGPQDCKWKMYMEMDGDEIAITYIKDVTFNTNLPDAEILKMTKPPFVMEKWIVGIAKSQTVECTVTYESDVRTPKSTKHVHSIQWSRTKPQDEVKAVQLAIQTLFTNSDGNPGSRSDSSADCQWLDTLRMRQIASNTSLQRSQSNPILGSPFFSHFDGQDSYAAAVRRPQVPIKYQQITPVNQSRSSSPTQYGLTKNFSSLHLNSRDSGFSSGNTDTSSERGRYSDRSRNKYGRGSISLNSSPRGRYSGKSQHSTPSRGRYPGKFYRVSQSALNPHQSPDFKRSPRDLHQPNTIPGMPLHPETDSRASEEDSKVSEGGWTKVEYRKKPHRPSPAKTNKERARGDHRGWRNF
T3 sequence (P53779 whole entry): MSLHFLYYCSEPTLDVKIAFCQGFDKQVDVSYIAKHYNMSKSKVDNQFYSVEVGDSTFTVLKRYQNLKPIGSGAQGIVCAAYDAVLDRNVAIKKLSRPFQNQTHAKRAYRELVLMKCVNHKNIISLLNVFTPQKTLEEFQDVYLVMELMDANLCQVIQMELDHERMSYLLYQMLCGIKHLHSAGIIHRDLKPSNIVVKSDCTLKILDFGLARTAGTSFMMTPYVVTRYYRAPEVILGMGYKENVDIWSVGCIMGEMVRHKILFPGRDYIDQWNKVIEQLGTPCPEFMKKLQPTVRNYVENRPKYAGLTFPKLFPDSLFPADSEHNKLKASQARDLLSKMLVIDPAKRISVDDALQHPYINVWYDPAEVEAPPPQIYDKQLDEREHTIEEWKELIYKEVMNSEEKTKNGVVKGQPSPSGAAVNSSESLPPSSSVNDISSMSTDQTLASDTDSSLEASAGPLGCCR
T2 sequence (P29320 21-983): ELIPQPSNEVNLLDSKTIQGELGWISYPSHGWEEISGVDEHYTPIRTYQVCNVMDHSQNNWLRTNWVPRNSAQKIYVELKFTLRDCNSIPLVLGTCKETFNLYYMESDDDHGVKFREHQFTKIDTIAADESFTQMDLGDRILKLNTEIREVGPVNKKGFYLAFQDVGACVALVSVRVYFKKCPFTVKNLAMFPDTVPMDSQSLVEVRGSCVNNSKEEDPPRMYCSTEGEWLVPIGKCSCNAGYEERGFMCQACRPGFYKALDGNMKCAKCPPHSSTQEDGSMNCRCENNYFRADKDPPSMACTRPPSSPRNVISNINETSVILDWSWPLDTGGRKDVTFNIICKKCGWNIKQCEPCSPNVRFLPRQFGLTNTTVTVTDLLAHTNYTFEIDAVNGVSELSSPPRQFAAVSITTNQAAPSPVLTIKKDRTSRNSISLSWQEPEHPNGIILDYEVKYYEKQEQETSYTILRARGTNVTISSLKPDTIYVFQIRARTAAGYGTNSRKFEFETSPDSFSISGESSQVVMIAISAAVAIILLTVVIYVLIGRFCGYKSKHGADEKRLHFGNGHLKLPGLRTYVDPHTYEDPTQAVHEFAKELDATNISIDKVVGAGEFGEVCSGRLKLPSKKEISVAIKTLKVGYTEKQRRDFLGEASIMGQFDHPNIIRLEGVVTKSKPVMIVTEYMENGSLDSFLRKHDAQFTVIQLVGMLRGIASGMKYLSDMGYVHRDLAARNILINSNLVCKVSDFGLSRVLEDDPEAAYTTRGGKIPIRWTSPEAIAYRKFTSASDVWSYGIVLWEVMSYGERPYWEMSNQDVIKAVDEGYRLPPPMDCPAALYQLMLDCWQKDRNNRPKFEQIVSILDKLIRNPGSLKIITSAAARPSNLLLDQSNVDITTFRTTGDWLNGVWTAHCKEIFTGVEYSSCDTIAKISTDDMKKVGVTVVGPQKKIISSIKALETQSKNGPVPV
T4 sequence (Q02750 whole entry): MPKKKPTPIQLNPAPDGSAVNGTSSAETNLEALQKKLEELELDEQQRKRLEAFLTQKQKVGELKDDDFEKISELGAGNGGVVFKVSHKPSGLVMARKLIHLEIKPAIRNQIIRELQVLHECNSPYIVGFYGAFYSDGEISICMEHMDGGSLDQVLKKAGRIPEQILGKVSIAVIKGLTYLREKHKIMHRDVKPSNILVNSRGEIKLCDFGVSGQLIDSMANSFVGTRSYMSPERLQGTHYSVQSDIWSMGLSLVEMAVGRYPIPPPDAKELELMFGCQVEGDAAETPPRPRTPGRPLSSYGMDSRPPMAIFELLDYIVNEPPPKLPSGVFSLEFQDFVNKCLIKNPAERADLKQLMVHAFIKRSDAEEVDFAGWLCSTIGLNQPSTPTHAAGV
T1 sequence (Q96RR4 whole entry): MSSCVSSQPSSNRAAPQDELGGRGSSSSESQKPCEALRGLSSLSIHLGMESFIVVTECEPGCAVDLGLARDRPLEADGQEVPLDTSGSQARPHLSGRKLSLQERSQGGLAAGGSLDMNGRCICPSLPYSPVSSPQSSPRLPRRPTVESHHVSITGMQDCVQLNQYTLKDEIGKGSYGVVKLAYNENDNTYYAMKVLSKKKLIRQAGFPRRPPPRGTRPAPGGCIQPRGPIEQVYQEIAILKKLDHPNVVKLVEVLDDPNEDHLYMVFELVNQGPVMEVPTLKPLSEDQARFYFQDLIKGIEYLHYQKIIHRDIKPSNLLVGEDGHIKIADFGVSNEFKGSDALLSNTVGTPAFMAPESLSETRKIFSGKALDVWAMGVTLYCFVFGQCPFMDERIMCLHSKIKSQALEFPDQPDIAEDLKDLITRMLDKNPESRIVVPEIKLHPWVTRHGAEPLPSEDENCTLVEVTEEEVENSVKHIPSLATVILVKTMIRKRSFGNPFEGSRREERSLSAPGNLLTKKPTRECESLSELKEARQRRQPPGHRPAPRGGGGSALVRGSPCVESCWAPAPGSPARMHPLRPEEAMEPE

COc1cc(C(N)=O)nc(-c2cccc(C#C[C@]3(O)CCN(C)C3=O)c2)c1 [NIK SMI1]
BAFF-induced and CD40-induced p52 processing [1]: significantly inhibited
BAFF-induced and CD40-induced p52 processing [2]: significantly inhibited
frequency and numbers of splenic B cells, germinal center B cells and plasma cells ([3]; 4 weeks): decreased
frequency and numbers of splenic T effector memory (TEM) and T follicular helper (TFH) cells ([3]; 4 weeks): significantly reduced
frequency and numbers of total CD4+ T-cells ([3]; 4 weeks): did not affect
histopathologic scores of glomerulonephritis ([3]; 4 weeks): reduced
kidney expression of CCL9, CCL2, CXCL13 and CXCL11 ([3]; 4 weeks): reduced
serum CXCL16 ([3]; 4 weeks): significantly reduced
serum TNF and IL-12p40 ([3]; 4 weeks): reduced
spleen weight or total splenocyte count ([3]; 4 weeks): did not have a substantial effect
splenic expression of ICOS and IL-21 ([3]; 4 weeks): reduced
splenic expression of Immunoglobulin J (Igj) ([3]; 4 weeks): strongly suppressed
suppression of serum anti-histone autoantibodies ([3]; 4 weeks, vs BR3-mIgG2a): superior to BAFF blockade
terminal exposure vs in vitro IC70 ([3]; 12 hours after final dose): at or above the in vitro-determined IC70 concentration
adverse effect not explained by on-target pharmacology ([4]; 180 mg/kg, no formal toxicity assessment): never observed any adverse effect
coverage of NIK activity in vivo ([4]; doses used in vivo): 70–90%
PK properties ([4]; mouse, in vivo): excellent
off-target kinases inhibited to an extent >75% [5]: 3 out of 222
inhibition at 1 µM [6]: 1.1%
inhibition at 1 µM [7]: -5.2%
inhibition at 1 µM [8]: 4.6%
inhibition at 1 µM [9]: 43.1%
inhibition at 1 µM [10]: -0.8%
inhibition at 1 µM [11]: 4.5%
inhibition at 1 µM [12]: 2.5%
